Article PMC9856062, “Nano-Zirconium Dioxide Catalyzed Multicomponent Synthesis of Bioactive Pyranopyrazoles That Target Cyclin Dependent Kinase 1 in Human Breast Cancer Cells” (Biomedicines, 2023)
pIC50: −log10 of the molar value. Values joined by “and” are separate entries in the source; they are usually repeats but may differ in a detail not shown here. Equal entries are not always repeated. Where two headings read alike, the source gives them in different places.

Legend:
MCF-7 cells = assay: MCF-7 cell viability assay (Alamar Blue); format: cell-based, human; settings: for pIC50: MCF-7 cells; for effect on viability of MCF-7 cells: 0, 0.01, 0.1, 10, and 100 µM
Protocol: We obtained MCF-7 cells from Procell Life Science and Technology. A humidified atmosphere of 5% CO2 was maintained at 37 °C for the culture of MCF-7 cells (2000) in MEM or Leibovitz’s L-15 medium enriched with 2% FBS [21, 22, 23, 24]. DMSO was used to prepare a stock solution of pyranopyrazoles, and the stock solution was then diluted with culture medium to achieve the desired concentration. […] Incubation with AlamarBlue assay reagent was performed for a further 4 h. According to the established protocol, the IC50 values of compounds were determined in the absence and presence of pyranopyrazoles.
Figure 4 Loss of MCF-7 cell viability produced by compounds 5b 5d, and 5f. MCF-7 cells were exposed to 5b (A), 5d (B), and 5f (C) for 72 h and the viability of cells was analyzed by Alamar Blue assays. The results are presented as mean ± S.E.M. of triplicate determinations.

SKBR3 = assay: Breast cancer cell proliferation, Alamar Blue, SKBR3; format: cell-based; settings: Homo sapiens, SK-BR-3, 72 h; SKBR3 cells, 2% FBS medium, 3 days
T47D = assay: Breast cancer cell proliferation, Alamar Blue, T47D; format: cell-based; settings: Homo sapiens, 72 h; T47D cells, 2% FBS medium, 3 days
CDK1 [1] = target: T1, CDK1 (Homo sapiens, UniProt P06493); assay: CDK1 kinase assay (ADP-Glo / Kinase-Glo luminescence); format: biochemical; parameters: 1 mg of CDK1 antibodies were used to immunoprecipitate 1 mg of protein from the total cell lysate; endogenous in cells; host or cells: total cell lysate
T1 sequence (P06493 whole entry): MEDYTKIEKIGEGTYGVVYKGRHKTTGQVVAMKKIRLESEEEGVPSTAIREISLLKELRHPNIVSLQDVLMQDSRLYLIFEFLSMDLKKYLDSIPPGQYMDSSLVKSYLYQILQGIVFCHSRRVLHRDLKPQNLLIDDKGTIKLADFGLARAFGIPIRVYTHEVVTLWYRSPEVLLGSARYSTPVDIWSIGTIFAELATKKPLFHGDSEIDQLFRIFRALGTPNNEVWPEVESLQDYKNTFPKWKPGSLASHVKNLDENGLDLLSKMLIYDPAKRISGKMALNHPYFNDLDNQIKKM
T1 sequence (P14635 whole entry partner): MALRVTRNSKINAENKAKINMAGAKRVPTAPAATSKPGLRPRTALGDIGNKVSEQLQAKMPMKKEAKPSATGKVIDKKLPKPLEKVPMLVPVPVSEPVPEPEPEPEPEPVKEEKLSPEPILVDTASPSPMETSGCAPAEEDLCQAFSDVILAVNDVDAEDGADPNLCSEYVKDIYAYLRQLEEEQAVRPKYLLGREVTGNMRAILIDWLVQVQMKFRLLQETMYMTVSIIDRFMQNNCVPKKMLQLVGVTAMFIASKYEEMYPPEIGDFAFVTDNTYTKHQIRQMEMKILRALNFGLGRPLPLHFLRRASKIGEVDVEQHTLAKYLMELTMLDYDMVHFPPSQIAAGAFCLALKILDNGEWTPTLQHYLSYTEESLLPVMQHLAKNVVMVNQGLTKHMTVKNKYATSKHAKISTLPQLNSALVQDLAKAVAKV
Protocol: Promega’s Kinase-Glo luminescence assay was used for detection of CDK1 activity. IgG was used as a negative control, and 1 mg of CDK1 antibodies were used to immunoprecipitate 1 mg of protein from the total cell lysate. At […], the reaction mixture was incubated for three hours and subsequently, beads were washed three times with lysis buffer, following overnight incubation at […]. The reactant beads were added to […] kinase reaction buffer containing 0.2 mM ATP, 2 mM DTT, 0.1 mg/mL BSA, 20 mM MgCl2, and 40 mM Tris-HCl, and beads were resuspended for 30 min at room temperature with a CDK1/2 specific substrate (p53). A total of 10 µl of ADP-GLO reagent and […] of kinase detection reagent were added to the reaction for 40 min at room temperature and 5 min at room temperature, respectively. […]
Since the ADP-GloTM Kinase Assay uses multiple enzymes as components, it should not generate a high rate of interference or false responses when screening pyranopyrazoles anti-CDK1 activity. […] Based on the luminescence units for compounds 5b and 5f, Figure 8 illustrates the standard curves generated for inhibition of cdk1 activity by pyranopyrazoles at different concentrations. […]
Figure 8 In vitro inhibition of CDK1 by compounds 5b (A) and 5f (B). The inhibitory effect of pyranopyrazoles on CKD1 measured using ADP−Glo™ reagent. […]

MCF-10A cells = assay: Cytotoxicity to normal breast cells, Alamar Blue, MCF-10A; format: cell-based; settings: Homo sapiens, 72 h; MCF-10A normal breast cells, 2% FBS medium, 3 days
MDA-MB-231 = assay: Breast cancer cell proliferation, Alamar Blue, MDA-MB-231; format: cell-based; settings: Homo sapiens, 72 h; MDA-MB-231 cells, 2% FBS medium, 3 days
BT-474 cells = assay: Breast cancer cell proliferation, Alamar Blue, BT-474; format: cell-based; settings: Homo sapiens, 72 h, 2% FBS medium, 3 days
CDK1 [2] = target: T1, CDK1; parameters: method as in PMID 34156352; settings: literature value; cited from earlier work

| SMILES | pIC50 (MCF-7 cells; Homo sapiens, MCF7, 72 h) | melting point [°C] | pIC50 (SKBR3) | pIC50 (T47D) | pIC50 (CDK1 [1]) | effect on viability of MCF-7 cells (MCF-7 cells; 72 h) | pIC50 (MCF-7 cells; 72 h) | pIC50 (MCF-10A cells) | pIC50 (MDA-MB-231) | pIC50 (BT-474 cells) | pIC50 (CDK1 [2]) |
| --- | --- | --- | --- | --- | --- | --- | --- | --- | --- | --- | --- |
| Cc1n[nH]c2c1C(c1ccc(-c3cncnc3)cc1)C(C#N)=C(N)O2 (stereo not shown) [5a, 6-Amino-3-methyl-4-(4-(pyrimidin-5-yl)phenyl)-1,4-dihydropy-rano [2,3-c] Pyrazole-5-carbonitrile] | 4.26 | 196 to 198 | – | – | – | – | – | – | – | – | – |
| Cc1cc(-c2cccc(C3C(C#N)=C(N)Oc4[nH]nc(C)c43)c2)cnc1F (stereo not shown) [5b, 6-Amino-4-(3-(6-fluoro-5-methylpyridin-3-yl)phenyl)-3-methyl-1,4-dihydropyrano [2,3-c] Pyrazole-5-carbonitrile] | 4.75 | 214 to 215 | < 4.00 | 4.56 | 6.02 | dose–dependent decrease | 4.76 and 4.77 | 4.04 | 4.87 | 4.63 | – |
| Cc1n[nH]c2c1C(c1cccc(-c3ccncc3)c1)C(C#N)=C(N)O2 (stereo not shown) [5c, 6-Amino-3-methyl-4-(3-(pyridin-4-yl)phenyl)-1,4-dihydropyrano [2,3-c] Pyrazole-5-carbonitrile] | – | 245 to 247 | 4.16 | 4.47 | – | – | – | 4.05 | 4.83 | 4.67 | – |
| Cc1cc(-c2cccc(C3C(C#N)=C(N)Oc4[nH]nc(C)c43)c2)cnc1Cl (stereo not shown) [5d, 6-Amino-4-(3-(6-chloro-5-methylpyridin-3-yl)phenyl)-3-methyl-1,4-dihydropyrano [2,3-c] Pyrazole-5-carbonitrile] | 4.41 | 212 to 214 | – | – | – | dose–dependent decrease | – | – | – | – | – |
| Cc1n[nH]c2c1C(c1ccc(-c3ccncc3)cc1)C(C#N)=C(N)O2 (stereo not shown) [5e, 6-Amino-3-methyl-4-(4-(pyridin-4-yl)phenyl)-1,4-dihydropyra-no [2,3-c] Pyrazole-5-carbonitrile] | < 4.00 | 232 to 234 | < 4.00 | < 4.00 | – | – | – | < 4.00 | 4.66 | 4.30 | – |
| Cc1cc(-c2ccc(C3C(C#N)=C(N)Oc4[nH]nc(C)c43)cc2)cnc1F (stereo not shown) [5f, 6-Amino-4-(4-(6-fluoro-5-methylpyridin-3-yl)phenyl)-3-methyl-1,4-dihydropyrano [2,3-c] Pyrazole-5-carbonitrile] | 4.62 | 268 to 269 | < 4.00 | 4.34 | 5.15 | dose–dependent decrease | – | < 4.00 | 4.72 | 4.82 | – |
| Cc1nn(-c2ccc(Cl)cc2)c2c1C(c1cccc(-c3cncnc3)c1)C(C#N)=C(N)O2 (stereo not shown) [5g, 6-Amino-1-(4-chlorophenyl)-3-methyl-4-(3-(pyrimidin-5-yl)phenyl)-1,4-dihydropyrano [2,3-c] Pyrazole-5-carbonitrile] | – | 242 to 243 | – | – | – | – | – | – | – | – | – |
| O=C(c1cc(Cc2n[nH]c(=O)c3ccccc23)ccc1F)N1CCN(C(=O)C2CC2)CC1 [Olaparib, reference compound] | 5.48 | – | – | – | – | – | – | – | – | – | – |
| CC(C)CC(=O)Nc1[nH]nc2c1CN(C(=O)C1CCN(C)CC1)C2(C)C [PHA-793887] | – | – | – | – | – | – | – | – | – | – | 7.22 |
